Results on 1 compound are retold here after US5117052A, “Physiologically active substances, benastatins A and B, and production and use thereof” (priority 1990, dated 1992).

By IC50 is commonly meant the concentration that gives 50% inhibition. Read a high IC50 as weaker potency in that assay.

Structures are written as SMILES. ≈ marks a conversion by molar mass, not a printed value.

In test [1] the test system is Mycabacterium smegmatis ATCC607. Kind of test: Agar dilution assay, minimum growth inhibition concentration. It is filed as cell-based. As to conditions: read-out: Minimum growth-inhibition concentration. (Agar dilution tests growth on a series of plates holding different concentrations.)
For a further test, the target named is T1, glutathione transferase (Rattus norvegicus, UniProt P04905).
T1 construct: obtained from a homogenate of rat liver; from tissue; host or cells: rat liver homogenate, partially purified by DEAE-cellulose column and ammonium sulfate salting-out
T1 sequence (P04905 2-218 limits assumed): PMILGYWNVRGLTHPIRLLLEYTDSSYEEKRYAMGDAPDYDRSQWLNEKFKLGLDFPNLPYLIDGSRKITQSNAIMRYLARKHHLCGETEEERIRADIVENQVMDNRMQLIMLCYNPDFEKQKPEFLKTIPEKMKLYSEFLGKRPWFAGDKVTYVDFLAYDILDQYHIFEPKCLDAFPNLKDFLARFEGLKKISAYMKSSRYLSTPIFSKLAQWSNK
Kind of test: Glutathione transferase inhibition activity (3,4-dichloronitrobenzene/glutathione, absorption at 345 nm). It is filed as biochemical. As for the experimental part: The glutathione transferase inhibition activity was determined by a modified method based on the known method described in Biochemical and Biophysical Research Communications, 112, 980-985 (1983).
A test tube was charged with a solution mixture consisting of (a) 0.1 ml of 90 mM glutathione (reduction type), (b) 0.05 ml of 20 mM 3,4-dichloronitrobenzene, (c) 1.7 ml of 0.1M potassium phosphate buffer solution (pH 7.4) and (d) 0.1 ml of an aqueous solution containing the test compound. The solution mixture was heated to 37° C. for 3 minutes, and admixed with 0.05 ml of a glutathione transferase solution to effect a reaction at 37° C. for 30 minutes. The glutathione transferase solution employed was one which had been obtained from a homogenate of rat liver and which had been patially refined by means of a DEAE-cellulose column and of salting out-operation with ammonium sulfate.
After the completion of the reaction, the sample was measured for the light absorption (a) at 345 nm. At the same time, a control sample which was free of the test compound and which contained only the buffer solution was measured for the light absorption (b) at 345 nm.
The glutathione transferase inhibition activity was determined according to the formula: […]
IC50, which is the concentration of a test compound required for 50% inhibition, was recorded.

Test [2] concerns Staphylococcus aureus No. 5 (MRSA). Kind of test: Agar dilution assay, minimum growth inhibition concentration. Format: cell-based. As to conditions: read-out: Minimum growth-inhibition concentration.
Test [3] deals with Staphylococcus aureus No. 17 (MRSA). The description is as above. As to conditions: read-out: Minimum growth-inhibition concentration. It is filed as cell-based.
Test [4] concerns Saccharomyces cerevisiae F-7. The test is described as above. Format: cell-based. As to conditions: Saccharomyces cerevisiae, F7, read-out: Minimum growth-inhibition concentration.

On to `CCCCCc1cc2c(c(O)c1C(=O)O)-c1cc3c(c(O)c1CC2)C(=O)c1c(O)cc(O)cc1C3(C)C` [Benastatin B, benastatin B], for which the MIC in test [1] was 12.5 µg/mL (≈ 24.9 µM); in test [2], 3.12 µg/mL (≈ 6.21 µM); in test [3] it was 3.12 µg/mL (≈ 6.21 µM); in test [4], above 50 µg/mL. This compound also had an IC50 against glutathione transferase of 1830 nM.
